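96-well plates; 48 h exposure; 5 concentrations. Endpoints by linear interpolation between flanking doses. Not reached: highest tested concentration assigned. TGI marks complete inhibition of growth.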

Holding throughout (experiment): NCI tumour cell line growth inhibition, 48 h
In experiment [1] the test system is MDA-N.
Experiment [2] has as its system MDA-MB-435.
Experiment [3] concerns SK-MEL-5 melanoma.
The test system of experiment [4] is TK-10 renal.
Experiment [5] concerns HS 578T breast.
Experiment [6] has as its system SR leukemia.
The test system of experiment [7] is PC-3 prostate.
Experiment [8] has as its system BT-549 breast.
Experiment [9] deals with MDA-MB-231 breast.
The test system of experiment [10] is OVCAR-5 ovarian.
Experiment [11] concerns DU-145 prostate.
In experiment [12] the test system is T-47D breast.
The test system of experiment [13] is CAKI-1 renal.
Experiment [14] relates to OVCAR-4 ovarian.
Experiment [15] has as its system COLO 205 colon.
The test system of experiment [16] is RPMI-8226 leukemia.
In experiment [17] the test system is HCT-116 colon.
In experiment [18] the test system is NCI/ADR-RES ovarian.
Experiment [19] deals with M19-MEL melanoma.
For experiment [20], the system named is DMS 273 small cell lung.

Turning to `CC1CCCCNC1=S` (stereo not drawn), the TGI in [1], in [2], in experiment [3], in experiment [4], in experiment [5] and in [6] was greater than 10 µM each time. Besides, the TGI in experiment [7], in experiment [8], in [9], in [10], in [11] and in experiment [12] was greater than 10 µM in each case.
As for `COCCCNc1nc(N)c(C#N)c(C#N)c1C#N`, the TGI in [13], in experiment [14], in [1], in [2], in [15] and in [3] was greater than 10 µM in each case. Also, the TGI in experiment [4], in experiment [16], in [17], in experiment [5], in experiment [6] and in [7] was greater than 10 µM throughout. Moreover, the TGI in [18], in [9], in experiment [10], in [11] and in experiment [12] was greater than 10 µM each time.
Consider `CC(=O)Nc1ccc(/C=C/c2ccc(NC(=O)Nc3ccc(/C=C/c4ccc(NC(C)=O)cc4S(=O)(=O)O)c(S(=O)(=O)O)c3)cc2S(=O)(=O)O)c(S(=O)(=O)O)c1`, for which the TGI in experiment [19], in experiment [20], in [14], in experiment [15], in experiment [3] and in experiment [16] was greater than 100 µM in each case. Moreover, the TGI in experiment [17], in experiment [18] and in experiment [10] was greater than 100 µM each time.
On to `CCOC(=O)Cn1c(=O)ccn(COCCO)c1=O`, for which the TGI in [13], in experiment [14], in [1], in experiment [2], in [15] and in experiment [3] was greater than 100 µM in each case. Further, the TGI in experiment [4], in experiment [16], in experiment [5], in experiment [7], in experiment [8] and in experiment [18] was greater than 100 µM in each case. Moreover, the TGI in experiment [9], in experiment [10], in [11] and in experiment [12] was greater than 100 µM in each case.
Take `Clc1ccc(C[P+](c2ccccc2)(c2ccccc2)c2ccccc2)c(Cl)c1`: the TGI was determined as 11.5 µM in experiment [19]; 10.1 µM in [20]; 35.6 µM in [14]; 2.44 µM in experiment [15]; 3.38 µM in experiment [3]; 25.6 µM in experiment [4]. The TGI in experiment [16] is 5.31 µM; in [17], 10.3 µM; in experiment [6] it was 8.13 µM; in experiment [10] it was 18.9 µM.
Take `CCC(C)NC1=NCC(C)S1` (stereo not drawn): the TGI in experiment [13], in [1], in [2], in experiment [15], in experiment [3] and in experiment [16] was greater than 100 µM throughout. Also, the TGI in [17], in experiment [5], in experiment [6], in [7], in experiment [8] and in [9] was greater than 100 µM throughout. The TGI in experiment [10], in experiment [11] and in [12] was greater than 100 µM each time.
As to `NNC(=O)c1c(SCc2ccccc2)nc2c3ccccc3ccn12`, the TGI in experiment [13] is 87.9 µM; in experiment [14], 68.6 µM; in experiment [2] it was greater than 100 µM; in experiment [15], greater than 100 µM; in experiment [3] it was 28.3 µM; in experiment [4] it was greater than 100 µM. Besides, the TGI in [5] is greater than 100 µM; in [7] it was greater than 100 µM; in experiment [8], 70.2 µM; in experiment [18], greater than 100 µM; in experiment [9], 87.9 µM; in experiment [10], 54.8 µM. Also, the TGI in [11] was greater than 100 µM; in experiment [12], 72.1 µM.

(Values after PubChem BioAssay (NCI).)
